Earlier results as cited in article PMC11068032 (Journal of medicinal chemistry, 2023).

Conditions: cited from earlier work

SMILES: COc1ccc(C(=O)Nc2ccc(NS(C)(=O)=O)c(OCc3cc(OC)ccc3OC)c2)cc1 [Compound I, N-(3-((2,5-dimethoxybenzyl)oxy)-4-(methylsulfonamido)phenyl)-4-methoxybenzamide]
- AUC in brain tissue as share of the AUC in plasma: about 2%
- half-life: about 1.5 h
